According to patent US20140179606A1, “LEFT VENTRICULAR DIASTOLIC FUNCTION IMPROVING AGENT” (priority 2011, published 2014):

Tests used:
[1] = test system: acute heart failure model; assay: Evaluation of hemodynamics in acute heart failure model; assay type: in vivo, beagle; details: for Peak Negative dP/dt Change Ratio (%): indication of left ventricular diastolic function, 60 minutes after administration; for Peak Negative dP/dt Change Ratio (%) / Systemic Vascular Resistance Change Ratio (%) / Peak Positive dP/dt Change Ratio (%) / Left Ventricular End-Diastolic Pressure Change Ratio (%): continuous iv; for Peak Negative dP/dt Change Ratio (%) / Peak Positive dP/dt Change Ratio (%): two increasing doses; for Systemic Vascular Resistance Change Ratio (%): indication of afterload; for Peak Positive dP/dt Change Ratio (%): indication of left ventricular systolic function; for Left Ventricular End-Diastolic Pressure Change Ratio (%): indication of preload
Protocol: The acute heart failure model was produced by the following method. A male beagle (the weight was more than 10 kg) was anesthetized with pentobarbital sodium (30 mg/kg, intravenous administration), and then a tracheal catheter was introduced to the trachea and connected to a ventilator. The frequency of breath of the ventilator was set to 15 strokes per minute; the amount of ventilation was set to 20 mL/kg per stroke, and the respiration was controlled by using a mixed gas (Air:O2=3:0.2 as an indication). The animal was fixed with the lateral position and the hair of the left chest area, left and right femoral areas and cervical region was cut. Pentobarbital sodium (5 mg/kg/hr) was intravenously administered continuously from right cephalic vein, and the anesthesia was continued. The chest was opened at the left fourth rib, and the ascending aorta origin was exfoliated. Lactated Ringer's solution was intravenously administered continuously from the catheter inserted to the left femoral vein (5 mL/min). Further, in order to prevent the arrhythmia from occurring, propranolol hydrochloride (0.3 mL/min) was administered continuously together with the volume overload (mixed with lactated Ringer's solution) until the completion of the experiment. The left anterior descending coronary artery (LAD) was ligated 30 minutes after the administration of lactated Ringer's solution. After the hemodynamics became stable, methoxamine hydrochloride was administered continuously from the left femoral vein. In order to increase the systemic vascular resistance and thus decrease the cardiac output, methoxamine hydrochloride was maintained at the volume of 5 to 10 μg/kg/min so that the cardiac output decreased by 20% or more in comparison with the cardiac output before the volume overload, and methoxamine hydrochloride was administered continuously until the completion of the experiment.
From the point, at which the cardiac output decreased by 20% or more after the initiation of the continuous administration of methoxamine hydrochloride in comparison with the cardiac output before the administration of lactated Ringer's solution and other hemodynamics became stable, physiological saline (0.3 mL/min) was administered from the right femoral vein for 30 minutes (preceding phase of administration). Then, the compound A, (11α,13E,15α)-9-oxo-11,15-dihydroxy-16-(3-methoxymethylphenyl)-17,18,19,20-tetranor-5-tiaprost-13-enoic acid methyl ester (the EP4 agonist described in Example 1 of WO2000/003980, abbreviated to […] below), and carperitide (atrial natriuretic peptide), nitroglycerin (a vasodilator), nicorandil (a vasodilator) and milrinone (a phosphodiesterase III inhibitor: a compound having a cardiac effect and a vasodilation effect), which are existing agents for treating heart failure, were each administered for 30 minutes with increasing the dose gradually from the right femoral vein at the doses in the following table. The administered groups (four examples each) and the doses are shown below.
The measurement of cardiac hemodynamics was conducted every 10 minutes both during the preceding phase of administration and during the continuous administration of each dose.
Through the catheter introducer inserted to the right femoral artery, a pig tale catheter was introduced and indwelled in the left ventricle and connected to a disposable blood pressure transducer, and the left ventricular pressure (LVP) was measured through an amplifier for the measurement. […]

[2] = Toxicity, repeated oral administration to a dog for four weeks; assay type: in vivo; details: dose up to 30 times the dose showing vasodilation effect on single administration
Excerpt: Toxicity of the compound used for the agent of present invention is very low, and the compound is safe enough to be used as a medicine.

normal dog = assay: Left ventricular action in a normal dog; assay type: in vivo
Excerpt: From the above results, it was considered that milrinone is not always appropriate for administering to a diastolic heart failure patient with normal systolic function because milrinone has a strong cardiotonic action, while the compound A selectively improves left ventricular diastolic function as compared with the effect to improve systolic function and thus is also effective for a diastolic heart failure patient with normal systolic function as well as a systolic heart failure patient in which both diastolic function and systolic function are impaired.

[3] = test system: Dahl rat heart failure model; assay: Cardiac function and survival rate using Dahl rat (hypertensive / chronic heart failure model); assay type: in vivo; details: oral, two times a day for 90 days, compound A 300 μg/kg, milrinone 1000 μg/kg; for survival rate: FIG. 2; for left ventricular diastolic wall strain (DWS) index: FIG. 3
Protocol: A model of hypertensive heart failure, which is diastolic heart failure, was prepared by feeding solid feed for high salt load rat (corresponding to 8% salt) to 47-day-old male DIS/Eis rats (Dahl rats). Solid feed for normal feed rat (corresponding to 0.3% salt) was fed to a normal control group (10 examples).
The test compounds were orally administered repeatedly for 90 days two times a day with the dose of 5 mL/kg using a stomach tube to 13-week-old Dahl rats. The dose of the compound A was 300 μg/kg and the dose of milrinone was 1000 μg/kg (30 examples each).
The cardiac functions were measured with using an ultrasound imaging device under 2% isoflurane anesthesia by a general anesthesia device for an animal before the administration (12 weeks old: grouping value), on the 45th day of the administration and the 91st day of the administration. The hair of the chest area of a rat was removed and the changes in the left ventricular end-diastolic dimension, the left ventricular end-systolic dimension, the end-diastolic left ventricular anterior wall thickness, the end-diastolic left ventricular posterior wall thickness, the end-systolic left ventricular posterior wall thickness and the left ventricular posterior epicardial surface were measured with placing a linear probe on the chest area with M-mode. Further, the left ventricular ejection fraction (LVEF) and the left ventricular diastolic wall strain (DWS) index as the indication of left ventricular diastolic function were calculated.
The general state was observed once or twice a day throughout the experiment period, and dead or alive was confirmed and the general symptoms were recorded.

Row | Compound | Peak Negative dP/dt Change Ratio (%) [1] | toxicity [2] | PaO2 (arterial oxygen pressure) change ratio ([1]; continuous iv 3, 10 ng/kg/min) | increase of cardiac output ([1]; continuous iv 3, 10 ng/kg/min) | urine volume change ratio ([1]; continuous iv 3, 10 ng/kg/min) | Systemic Vascular Resistance Change Ratio (%) [1] | Peak Positive dP/dt Change Ratio (%) [1] | Left Ventricular End-Diastolic Pressure Change Ratio (%) [1] | left ventricular diastolic / systolic action in a normal dog (normal dog) | survival rate [3] | left ventricular diastolic wall strain (DWS) index [3]
1 | CC[C@H](C)[C@@H]1NC(=O)[C@H](CCCNC(=N)N)NC(=O)[C@H](CC(=O)O)NC(=O)[C@H](CCSC)NC(=O)[C@H](CCCNC(=N)N)NC(=O)CNC(=O)CNC(=O)[C@H](Cc2ccccc2)NC(=O)[C@@H](NC(=O)[C@H](CO)NC(=O)[C@H](CO)NC(=O)[C@H](CCCNC(=N)N)NC(=O)[C@H](CCCNC(=N)N)NC(=O)[C@H](CC(C)C)NC(=O)[C@@H](N)CO)CSSC[C@@H](C(=O)N[C@@H](CC(N)=O)C(=O)N[C@@H](CO)C(=O)N[C@@H](Cc2ccccc2)C(=O)N[C@@H](CCCNC(=N)N)C(=O)N[C@@H](Cc2ccc(O)cc2)C(=O)O)NC(=O)CNC(=O)[C@H](CC(C)C)NC(=O)CNC(=O)[C@H](CO)NC(=O)[C@H](CCC(N)=O)NC(=O)[C@H](C)NC(=O)CNC1=O [Carperitide, carperitide] | −6% |  |  |  |  |  |  |  |  |  | 
2 | O=C(O)CCCSCCN1C(=O)CC[C@@H]1/C=C/[C@@H](O)Cc1ccc(F)cc1 [Compound A, 4-[(2-{(2R)-2-[(1E,3S)-4-(4-fluorophenyl)-3-hydroxy-1-buten-1-yl]-5-oxo-1-pyrrolidinyl}ethyl)thio]butanoic acid] | 48% | not found to be toxic | 111.5% | about 60% | 145.4% | −34% | 16% | −42% | did not show left ventricular diastolic action or left ventricular systolic action | drastically improved the survival rate | remarkably improved DWS
3 | COCc1cccc(CC(O)/C=C/C2C(O)CC(=O)C2CCSCCCC(=O)OC)c1 (stereo not drawn) [Compound B, (11α,13E,15α)-9-oxo-11,15-dihydroxy-16-(3-methoxymethylphenyl)-17,18,19,20-tetranor-5-tiaprost-13-enoic acid methyl ester] | −3% |  |  |  |  | −43% | −4% | −41% |  |  | 
4 | O=C(O)CCCCCCN1C(=O)CC[C@@H]1CC[C@@H](O)Cc1cccc(C(F)(F)F)c1 [Compound C] | −1% |  |  |  |  | −14% | 2% | −37% |  |  | 
5 | O=C(O)CCCSCCN1C(=O)CC[C@@H]1CC[C@@H](O)c1cccc(Oc2cccc(F)c2)c1 [Compound D] | −5% |  |  |  |  | −42% | −9% | −46% |  |  | 
6 | Cc1[nH]c(=O)c(C#N)cc1-c1ccncc1 [Milrinone, milrinone] | 23% |  |  |  |  |  | 38% |  | showed a strong left ventricular systolic effect | the degree of the improvement of the survival rate was small | did not improve DWS
7 | O=C(NCCO[N+](=O)[O-])c1cccnc1 [Nicorandil, nicorandil] | −7% |  |  |  |  |  |  |  |  |  | 
8 | O=[N+]([O-])OCC(CO[N+](=O)[O-])O[N+](=O)[O-] [Nitroglycerin, nitroglycerin] | −8% |  |  |  |  |  |  |  |  |  | 
